Assay results taken from ChEMBL document CHEMBL1201862, “PubChem BioAssay data set” (2004).
The source made the active and inactive calls.

What was measured:
Orexin receptor type 2 [1] = target: T1, Orexin receptor type 2 (Homo sapiens, UniProt O43614); test: Counterscreen assay for antagonists of the orexin 1 receptor (OX1R; HCRTR1): Homogeneous Time Resolved Fluorescence (HTRF)-based cell-based dose response assay for antagonists of the orexin 2 receptor (OX2R; HCRTR2), run by assay provider.; assay type: functional
T1 sequence (O43614 whole entry): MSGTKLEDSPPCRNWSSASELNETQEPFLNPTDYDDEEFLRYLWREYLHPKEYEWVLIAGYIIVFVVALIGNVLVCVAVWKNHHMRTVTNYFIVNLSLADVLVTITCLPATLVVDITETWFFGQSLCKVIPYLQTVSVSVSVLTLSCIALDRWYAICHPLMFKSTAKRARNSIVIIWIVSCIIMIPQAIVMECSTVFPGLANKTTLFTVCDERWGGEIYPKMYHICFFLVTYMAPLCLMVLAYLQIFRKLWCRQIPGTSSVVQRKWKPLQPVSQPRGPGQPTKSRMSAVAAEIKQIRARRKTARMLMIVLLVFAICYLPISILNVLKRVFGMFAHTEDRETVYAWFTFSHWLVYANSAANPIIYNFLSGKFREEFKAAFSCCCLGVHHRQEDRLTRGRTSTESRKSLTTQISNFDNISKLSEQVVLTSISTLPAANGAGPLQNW

[2] = (§1) Counterscreen for antagonists of the orexin 1 receptor (OX1R; HCRTR1): Fluorescence-based cell-based high throughput dose response assay to identify antagonists of the parental CHO cell line. [Related pubchem assays (depositor defined):AID434989, AID435008, AID463079, AID485270, AID492963, AID492964, AID492965, AID493232, AID504699, AID504701]; assay type: functional
CHO-K1 = test: as §1, with “Homogeneous time resolved fluorescence (HTRF)-based” for “Fluorescence-based”, “cell-based” for “cell-based high throughput”, “CHO-K1” for “CHO”; assay type: functional; conditions: Cricetulus griseus;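 note: potency for inhibition of ATP-stimulated IP1 production as antagonists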
Orexin receptor type 2 [3] = target: T1, Orexin receptor type 2; test: Counterscreen assay for antagonists of the orexin 1 receptor (OX1R; HCRTR1): Fluorescence-based cell-based dose response assay for antagonists of the orexin 2 receptor (OX2R; HCRTR2), run by assay provider.; assay type: functional
[4] = target: T2, Orexin/Hypocretin receptor type 1 (Homo sapiens, UniProt O43613); test: (§2) Fluorescence-based cell-based high throughput dose response assay for antagonists of the orexin 1 receptor (OX1R; HCRTR1). [Related pubchem assays (depositor defined):AID434989, AID435008, AID463079, AID485270, AID492963, AID492964, AID492965, AID493232, AID504717, AID504718]; assay type: functional
T2 sequence (O43613 whole entry): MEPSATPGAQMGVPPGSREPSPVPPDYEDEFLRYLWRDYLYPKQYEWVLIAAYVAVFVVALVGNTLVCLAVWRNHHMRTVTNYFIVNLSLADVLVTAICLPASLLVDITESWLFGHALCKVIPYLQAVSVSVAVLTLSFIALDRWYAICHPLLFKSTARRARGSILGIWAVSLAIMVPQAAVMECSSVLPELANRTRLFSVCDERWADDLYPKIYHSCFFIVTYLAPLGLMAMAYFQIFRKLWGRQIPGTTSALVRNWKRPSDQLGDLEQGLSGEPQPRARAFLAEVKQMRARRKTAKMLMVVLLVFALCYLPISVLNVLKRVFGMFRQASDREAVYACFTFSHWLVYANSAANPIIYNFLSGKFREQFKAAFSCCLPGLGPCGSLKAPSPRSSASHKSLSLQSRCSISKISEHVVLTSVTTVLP

[5] = target: T2, Orexin/Hypocretin receptor type 1; test: as §2, with “Homogeneous Time Resolved Fluorescence (HTRF)-based” for “Fluorescence-based”; assay type: functional
[6] = target: Potassium voltage-gated channel subfamily KQT member 2 (Rattus norvegicus, UniProt O88943); test: blockers of KCNQ2 channel current – cell-based, automated electrophysiology, set II, rat KCNQ2, dose response (AID 588637); assay type: functional
Chain of Potassium voltage-gated channel subfamily KQT member 2 (O88943 whole entry): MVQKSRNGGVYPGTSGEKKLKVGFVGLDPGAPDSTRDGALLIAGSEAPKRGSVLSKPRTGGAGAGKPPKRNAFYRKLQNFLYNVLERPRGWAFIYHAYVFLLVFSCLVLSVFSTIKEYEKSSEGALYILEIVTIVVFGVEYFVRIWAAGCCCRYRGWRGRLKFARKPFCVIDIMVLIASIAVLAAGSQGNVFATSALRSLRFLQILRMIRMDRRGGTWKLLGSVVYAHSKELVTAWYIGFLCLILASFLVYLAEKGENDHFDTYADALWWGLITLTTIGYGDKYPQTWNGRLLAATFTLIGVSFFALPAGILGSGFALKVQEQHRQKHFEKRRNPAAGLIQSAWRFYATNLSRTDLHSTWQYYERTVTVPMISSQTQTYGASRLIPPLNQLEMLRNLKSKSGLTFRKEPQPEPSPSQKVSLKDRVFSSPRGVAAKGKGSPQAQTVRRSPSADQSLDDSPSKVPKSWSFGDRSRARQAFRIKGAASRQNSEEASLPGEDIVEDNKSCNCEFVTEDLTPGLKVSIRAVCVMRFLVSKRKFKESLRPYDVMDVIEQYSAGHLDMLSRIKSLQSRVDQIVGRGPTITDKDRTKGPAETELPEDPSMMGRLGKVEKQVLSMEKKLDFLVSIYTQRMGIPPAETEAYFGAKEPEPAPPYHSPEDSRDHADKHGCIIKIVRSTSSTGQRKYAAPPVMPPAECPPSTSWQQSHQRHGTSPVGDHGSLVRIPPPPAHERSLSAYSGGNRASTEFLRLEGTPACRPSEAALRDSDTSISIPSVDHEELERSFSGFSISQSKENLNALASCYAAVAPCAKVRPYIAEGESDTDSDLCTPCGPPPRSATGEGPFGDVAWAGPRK

[7] = Luminescence Cell-Based Dose Response HTS to Identify Activators of Luciferase Translation or Activity in H4 […] Cells. [Related pubchem assays: 1829 (Project Summary), 1814 (Primary HTS)]; assay type: functional
H4 = test: Luminescence Cell-Based Dose Response HTS to Identify Activators of 5'UTR Stem-Loop Driven Prion Protein mRNA Translation in H4 Neuroglioblastoma Cells. [Related pubchem assays: 1829 (Project Summary), 1814 (Primary HTS)]; assay type: functional; conditions: Homo sapiens
[8] = Luminescence Cell-Based Dose Confirmation HTS to Identify Activators of 5'UTR Stem-Loop Driven Alpha-Synuclein mRNA Translation in H4 Neuroglioblastoma Cells. [Related pubchem assays: 1829 (Project Summary), 1814 (Primary HTS)]; assay type: functional
Melanocortin receptor 4 = Melanocortin receptor 4 (Homo sapiens, UniProt P32245); test: inhibitors of MC4R cAMP signaling – cell-based, TR-FRET, biased antagonists, dose response (AID 602298); assay type: functional;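 note: antagonist potency against agonist-stimulated cAMP production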
Chain of Melanocortin receptor 4 (P32245 whole entry): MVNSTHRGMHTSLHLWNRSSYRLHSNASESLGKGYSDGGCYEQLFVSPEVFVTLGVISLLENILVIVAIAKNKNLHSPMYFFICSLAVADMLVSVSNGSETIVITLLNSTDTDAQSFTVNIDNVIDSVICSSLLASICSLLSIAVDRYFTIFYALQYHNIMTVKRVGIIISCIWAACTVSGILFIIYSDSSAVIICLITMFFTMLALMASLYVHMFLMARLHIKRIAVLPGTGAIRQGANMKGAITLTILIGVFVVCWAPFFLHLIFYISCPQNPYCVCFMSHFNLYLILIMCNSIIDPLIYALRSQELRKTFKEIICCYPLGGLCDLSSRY

[9] = cAMP pathway inhibition in counterscreen cell line – TR-FRET cAMP detection, counter-screen for MC4R biased antagonist project, dose response (AID 602305); assay type: functional, cell-based;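 note: U2OS cells stimulated with forskolin near its EC80 as the cAMP inducer; potency is for inhibition of forskolin-stimulated cAMP signaling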
[10] = inhibition of ARNT PAS-B/TACC3 complex formation – biochemical, AlphaScreen, cherry-picked samples, confirmation (AID 651703); assay type: functional, Homo sapiens;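 note: His-tagged ARNT PAS-B domain paired with GST-TACC3 E629A dimer coactivator fragment; potency of inhibitors that break up the complex and lower AlphaScreen signal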
[11] = target: Ras and Rab interactor 1/Tyrosine-protein kinase ABL1 (Homo sapiens, UniProt P00519+Q13671); assay type: functional;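 note: biochemical TR-FRET dose-response test measuring inhibition of binding between Rin1 and Abl proteins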
Chain of Ras and Rab interactor 1/Tyrosine-protein kinase ABL1 (P00519 whole entry): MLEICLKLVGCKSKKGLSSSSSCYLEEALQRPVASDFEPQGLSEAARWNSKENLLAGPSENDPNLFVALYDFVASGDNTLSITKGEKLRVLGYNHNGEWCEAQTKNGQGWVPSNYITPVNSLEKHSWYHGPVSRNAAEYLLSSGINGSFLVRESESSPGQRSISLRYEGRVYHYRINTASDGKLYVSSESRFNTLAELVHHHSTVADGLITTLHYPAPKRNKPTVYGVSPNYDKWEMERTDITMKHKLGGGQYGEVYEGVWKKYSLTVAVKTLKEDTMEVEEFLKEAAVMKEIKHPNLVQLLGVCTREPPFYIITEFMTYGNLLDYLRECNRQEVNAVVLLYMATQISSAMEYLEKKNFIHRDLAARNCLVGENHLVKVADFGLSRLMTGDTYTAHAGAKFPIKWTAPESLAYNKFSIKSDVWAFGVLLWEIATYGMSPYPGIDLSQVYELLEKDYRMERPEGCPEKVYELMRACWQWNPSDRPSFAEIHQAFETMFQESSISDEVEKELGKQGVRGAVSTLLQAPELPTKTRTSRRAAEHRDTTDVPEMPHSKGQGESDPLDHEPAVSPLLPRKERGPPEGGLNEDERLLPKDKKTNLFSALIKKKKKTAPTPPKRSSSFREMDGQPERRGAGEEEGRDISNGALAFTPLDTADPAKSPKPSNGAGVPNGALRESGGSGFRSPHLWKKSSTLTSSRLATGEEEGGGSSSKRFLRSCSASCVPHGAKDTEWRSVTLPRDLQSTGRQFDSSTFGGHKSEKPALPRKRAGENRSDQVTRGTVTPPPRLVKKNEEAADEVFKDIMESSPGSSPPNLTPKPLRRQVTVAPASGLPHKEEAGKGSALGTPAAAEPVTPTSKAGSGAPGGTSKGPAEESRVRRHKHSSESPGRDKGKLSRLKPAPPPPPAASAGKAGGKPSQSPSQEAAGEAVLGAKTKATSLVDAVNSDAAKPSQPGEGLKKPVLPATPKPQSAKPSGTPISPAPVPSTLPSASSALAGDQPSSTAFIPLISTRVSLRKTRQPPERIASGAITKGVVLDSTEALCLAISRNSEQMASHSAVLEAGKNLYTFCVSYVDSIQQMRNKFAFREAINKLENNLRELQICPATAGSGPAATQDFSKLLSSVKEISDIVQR
Chain of Ras and Rab interactor 1/Tyrosine-protein kinase ABL1 (Q13671 whole entry): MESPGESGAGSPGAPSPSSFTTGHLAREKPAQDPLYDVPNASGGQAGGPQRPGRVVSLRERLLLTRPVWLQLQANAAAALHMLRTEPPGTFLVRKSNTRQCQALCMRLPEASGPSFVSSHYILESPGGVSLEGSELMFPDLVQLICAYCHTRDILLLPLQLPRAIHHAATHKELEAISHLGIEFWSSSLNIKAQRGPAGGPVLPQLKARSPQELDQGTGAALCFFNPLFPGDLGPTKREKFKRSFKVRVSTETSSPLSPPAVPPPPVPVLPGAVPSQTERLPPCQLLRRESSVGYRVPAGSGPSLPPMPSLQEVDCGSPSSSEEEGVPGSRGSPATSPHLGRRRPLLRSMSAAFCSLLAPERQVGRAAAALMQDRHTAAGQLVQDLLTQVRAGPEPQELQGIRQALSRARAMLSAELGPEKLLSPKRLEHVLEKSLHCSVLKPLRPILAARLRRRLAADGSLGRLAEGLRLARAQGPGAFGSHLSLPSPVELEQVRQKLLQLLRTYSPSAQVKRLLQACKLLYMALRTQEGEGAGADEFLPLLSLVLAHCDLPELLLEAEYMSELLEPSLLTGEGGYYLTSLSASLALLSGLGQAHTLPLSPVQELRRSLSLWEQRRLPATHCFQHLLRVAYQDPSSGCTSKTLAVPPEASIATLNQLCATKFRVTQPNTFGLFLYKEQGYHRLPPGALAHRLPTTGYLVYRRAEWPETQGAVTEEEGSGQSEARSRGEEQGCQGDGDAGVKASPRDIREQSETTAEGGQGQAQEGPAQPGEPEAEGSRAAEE

Genome polyprotein = Genome polyprotein (dengue virus type 2, UniProt P29990); test: flavivirus cap methylation enzyme inhibition – biochemical, confirmation dose response, primary screen (AID 588689); assay type: functional
Chain of Genome polyprotein (P29990 2492-3391 limits assumed): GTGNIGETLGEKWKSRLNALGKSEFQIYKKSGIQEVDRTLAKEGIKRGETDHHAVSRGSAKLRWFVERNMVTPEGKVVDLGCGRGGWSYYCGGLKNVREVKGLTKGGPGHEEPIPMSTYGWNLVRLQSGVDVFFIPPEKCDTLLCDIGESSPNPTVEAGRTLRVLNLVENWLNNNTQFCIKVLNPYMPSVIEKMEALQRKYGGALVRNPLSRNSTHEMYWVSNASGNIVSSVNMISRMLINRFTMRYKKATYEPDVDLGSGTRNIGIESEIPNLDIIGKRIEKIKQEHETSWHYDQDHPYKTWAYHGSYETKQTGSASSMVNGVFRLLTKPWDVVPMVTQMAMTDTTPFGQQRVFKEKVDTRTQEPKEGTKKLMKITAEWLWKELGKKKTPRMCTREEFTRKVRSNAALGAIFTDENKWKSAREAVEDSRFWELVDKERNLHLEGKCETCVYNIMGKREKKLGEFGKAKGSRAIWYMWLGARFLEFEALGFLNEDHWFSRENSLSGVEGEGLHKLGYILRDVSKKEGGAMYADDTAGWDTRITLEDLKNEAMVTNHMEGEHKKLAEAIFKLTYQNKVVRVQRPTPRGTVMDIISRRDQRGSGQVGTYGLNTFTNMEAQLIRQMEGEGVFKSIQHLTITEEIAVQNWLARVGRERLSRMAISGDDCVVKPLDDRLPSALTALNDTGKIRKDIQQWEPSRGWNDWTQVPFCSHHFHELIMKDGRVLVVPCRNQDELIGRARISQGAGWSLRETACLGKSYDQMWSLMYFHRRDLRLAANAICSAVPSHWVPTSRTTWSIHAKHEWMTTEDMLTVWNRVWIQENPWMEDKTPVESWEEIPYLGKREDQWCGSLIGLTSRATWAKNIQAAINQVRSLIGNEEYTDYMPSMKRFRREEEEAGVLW

Vero = test: viability of Vero cells under compound – cytotoxicity control for flavivirus capping enzyme inhibitors (AID 588742); assay type: functional; conditions: Chlorocebus sabaeus

Row | Structure (SMILES) | IC50 (Orexin receptor type 2 [1]) | IC50 [2] | IC50 (CHO-K1) | IC50 (Orexin receptor type 2 [3]) | IC50 [4] | IC50 [5] | also measured
1 | CCN(CC)c1ccc(NC(=O)c2cc3ccccc3o2)c(C)c1 | > 50 µM (inactive) | > 49.8 µM (inactive) | > 66.2 µM (inactive) | > 88.8 µM (inactive) | > 49.8 µM (inactive) | 2.43 µM (active) | 
2 | COc1cccc(-c2nc(CS(=O)(=O)CC(=O)NC3CCCc4ccccc43)c(C)o2)c1 (configuration not stated) |  |  |  |  |  |  | IC50 [6]: 0.869 µM (active)
3 | CSc1nc2ccc3nc(NC(=O)c4ccccc4)sc3c2s1 | > 50 µM (inactive) | > 49.7 µM (inactive) | > 66.2 µM (inactive) | > 88.8 µM (inactive) | 2.05 µM (active) | 1.13 µM (active) | EC50 [7]: 38.3 µM (active); EC50 (H4): > 120 µM (not active); EC50 [8]: 43.8 µM (active)
4 | Sc1nnc(-c2ccc3ccccc3n2)n1-c1cc(Cl)cc(Cl)c1 |  |  |  |  |  |  | IC50 (Melanocortin receptor 4): > 64.6 µM (inactive); IC50 [9]: > 64.6 µM (inactive)
5 | COc1cccc(CNC(=O)COC(=O)c2ccc(C(=O)c3ccccc3)cc2)c1 |  |  |  |  |  |  | AC50 [10]: 79.3 µM (active)
6 | CCOc1c(Cl)cc(C(=O)Nc2ccccc2C(=O)O)cc1Cl |  |  |  |  |  |  | IC50 [11]: 26.8 µM (inactive); IC50 (Genome polyprotein): 52 µM (active); CC50 (Vero): > 40 µM (active)
